Calls of active or inactive are those of the source. The calls are words filed in the database; no cut-off is given here.
Assays:
[1] = molecular target: T1, Protein cereblon/Histone deacetylase 8 (Homo sapiens) (UniProt Q9BY41+Q96SW2); assay: Protac activity at CRBN/HDAC8 in human A549 cells assessed as degradation of HDAC8 at 2 uM measured after 20 hrs by Western blot analysis relative to control; type: cell-based
[2] = molecular target: T1, Protein cereblon/Histone deacetylase 8 (Homo sapiens); assay: Protac activity at CRBN/HDAC8 in human A549 cells assessed as degradation of HDAC8 at 200 nM measured after 20 hrs by Western blot analysis relative to control; type: cell-based
[3] = molecular target: Protein cereblon/Histone deacetylase 8 (Homo sapiens, UniProt Q96SW2+Q9BY41); assay: Protac activity at CRBN/HDAC8 in human A549 cells assessed as degradation of HDAC8 incubated for 20 hrs by ELISA method; type: cell-based
Chain of Protein cereblon/Histone deacetylase 8 (Q9BY41 whole entry): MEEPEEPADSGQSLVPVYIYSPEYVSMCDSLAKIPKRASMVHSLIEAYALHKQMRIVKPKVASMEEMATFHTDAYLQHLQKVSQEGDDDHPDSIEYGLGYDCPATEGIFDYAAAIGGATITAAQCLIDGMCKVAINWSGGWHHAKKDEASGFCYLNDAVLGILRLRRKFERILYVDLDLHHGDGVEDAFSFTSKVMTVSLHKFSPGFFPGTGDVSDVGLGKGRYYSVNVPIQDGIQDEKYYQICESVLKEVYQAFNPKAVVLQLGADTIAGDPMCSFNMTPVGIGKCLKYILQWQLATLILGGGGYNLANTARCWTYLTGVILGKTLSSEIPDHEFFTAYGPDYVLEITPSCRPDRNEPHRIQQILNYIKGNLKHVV
Chain of Protein cereblon/Histone deacetylase 8 (Q96SW2 whole entry): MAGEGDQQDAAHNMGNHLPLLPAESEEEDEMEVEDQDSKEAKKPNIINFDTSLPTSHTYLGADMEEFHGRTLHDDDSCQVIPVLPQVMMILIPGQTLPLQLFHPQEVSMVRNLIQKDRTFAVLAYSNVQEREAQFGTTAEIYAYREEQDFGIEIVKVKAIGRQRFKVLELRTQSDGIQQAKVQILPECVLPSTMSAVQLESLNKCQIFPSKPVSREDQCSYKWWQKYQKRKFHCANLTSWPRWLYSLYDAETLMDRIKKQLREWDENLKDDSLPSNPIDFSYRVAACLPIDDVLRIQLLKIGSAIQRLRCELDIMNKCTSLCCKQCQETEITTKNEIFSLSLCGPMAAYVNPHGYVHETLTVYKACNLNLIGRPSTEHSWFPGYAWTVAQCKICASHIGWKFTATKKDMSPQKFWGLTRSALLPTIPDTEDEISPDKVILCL

[4] = molecular target: T2, von Hippel-Lindau disease tumor suppressor/Histone deacetylase 8 (Homo sapiens) (UniProt Q9BY41+P40337); assay: Protac activity at VHL/HDAC8 in human A549 cells assessed as degradation of HDAC8 at 200 nM measured after 20 hrs by Western blot analysis relative to control; type: cell-based
T2 sequence (P40337 whole entry, looked up): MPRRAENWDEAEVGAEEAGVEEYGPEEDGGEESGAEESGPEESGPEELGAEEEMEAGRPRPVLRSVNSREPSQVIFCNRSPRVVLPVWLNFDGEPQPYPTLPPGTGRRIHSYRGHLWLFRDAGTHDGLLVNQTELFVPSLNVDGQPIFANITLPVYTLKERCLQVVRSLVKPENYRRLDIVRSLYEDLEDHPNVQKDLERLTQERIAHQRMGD
T2 sequence (Q9BY41 whole entry, looked up): as the sequence (Q9BY41 whole entry) above

[5] = molecular target: T2, von Hippel-Lindau disease tumor suppressor/Histone deacetylase 8 (Homo sapiens); assay: Protac activity at VHL/HDAC8 in human A549 cells assessed as degradation of HDAC8 at 2 uM measured after 20 hrs by Western blot analysis relative to control; type: cell-based
[6] = molecular target: T1, Protein cereblon/Histone deacetylase 8 (Homo sapiens); assay: Protac activity at CRBN/HDAC8 in human A549 cells assessed as reduction in HDAC8 protein level at 0.1 to 10 uM by Western blot analysis; type: cell-based; details: dose 0.1-10 µM
[7] = molecular target: Cereblon/Ikaros (Homo sapiens) (UniProt Q96SW2+Q13422); assay: Protac activity at CRBN/IKZF1 in human A549 cells assessed as reduction in IKZF1 protein level at 10 uM by Western blot analysis; type: cell-based
[8] = system: A549; assay: Antiproliferative activity against human A549 cells assessed as inhibition of cell growth measured after 72 hrs by CCK-8 method; type: functional, cell-based; details: for IC50: A549, 72 h; for Activity: dose <= 1.5 µM
[9] = molecular target: T1, Protein cereblon/Histone deacetylase 8 (Homo sapiens); assay: Protac activity at CRBN/HDAC8 in human A549 cells assessed as maximum degradation at 10 uM incubated for 20 hrs by ELISA method relative to control; type: cell-based

T1 sequence (Q96SW2 whole entry, looked up): as the sequence (Q96SW2 whole entry) above
T1 sequence (Q9BY41 whole entry, looked up): as the sequence (Q9BY41 whole entry) above

| Activity [1] | Activity [2] | EC50 [3] | Activity [4] | Activity [5] | Compound | other results |
| --- | --- | --- | --- | --- | --- | --- |
| 59.7% | 28.5% | 580 nM | – | – | O=C1CCC(N2C(=O)c3cccc(NCc4cn(CCCCCCOc5ccc(Cn6ccc7ccc(C(=O)NO)cc76)cc5)nn4)c3C2=O)C(=O)N1 (stereo unspecified) | – |
| – | – | – | 31.3% | 75.3% | Cc1ncsc1-c1ccc([C@H](C)NC(=O)[C@@H]2C[C@@H](O)CN2C(=O)[C@@H](NC(=O)COCCOCCOc2ccc(Cn3ccc4ccc(C(=O)NO)cc43)cc2)C(C)(C)C)cc1 | – |
| 78.4% | 28% | – | – | – | O=C1CCC(N2C(=O)c3cccc(NCCc4cn(CCCCCOc5ccc(Cn6ccc7ccc(C(=O)NO)cc76)cc5)nn4)c3C2=O)C(=O)N1 (stereo unspecified) | – |
| – | – | – | 15.9% | 26.4% | Cc1ncsc1-c1ccc([C@H](C)NC(=O)[C@@H]2C[C@@H](O)CN2C(=O)[C@@H](NC(=O)CCCOc2ccc(Cn3ccc4ccc(C(=O)NO)cc43)cc2)C(C)(C)C)cc1 | – |
| 85.9% | 39.5% | 620 nM | – | – | O=C1CCC(N2C(=O)c3cccc(NCc4cn(CCCCCOc5ccc(Cn6ccc7ccc(C(=O)NO)cc76)cc5)nn4)c3C2=O)C(=O)N1 (stereo unspecified) | Activity [6]: Active; Activity [7]: Active; IC50 [8]: 12.5 µM; Activity [8]: Dose-Dependent Effect; Emax [9]: 90.2% |
| 69.4% | 25.6% | – | – | – | O=C1CCC(N2C(=O)c3cccc(NCc4cn(CCCOc5ccc(Cn6ccc7ccc(C(=O)NO)cc76)cc5)nn4)c3C2=O)C(=O)N1 (stereo unspecified) | – |
| 83.6% | 30.6% | 470 nM | – | – | O=C1CCC(N2C(=O)c3cccc(NCc4cn(CCCCOc5ccc(Cn6ccc7ccc(C(=O)NO)cc76)cc5)nn4)c3C2=O)C(=O)N1 (stereo unspecified) | Activity [6]: Active; Activity [7]: Active; IC50 [8]: 7.11 µM; Activity [8]: Dose-Dependent Effect; Emax [9]: 90.2% |
| – | – | – | 28.6% | 72.9% | Cc1ncsc1-c1ccc([C@H](C)NC(=O)[C@@H]2C[C@@H](O)CN2C(=O)[C@@H](NC(=O)COCCOCCOCCOCCOc2ccc(Cn3ccc4ccc(C(=O)NO)cc43)cc2)C(C)(C)C)cc1 | – |
| 65.9% | 36.5% | – | – | – | O=C1CCC(N2C(=O)c3cccc(NCc4cn(CCOCCOCCOCCOc5ccc(Cn6ccc7ccc(C(=O)NO)cc76)cc5)nn4)c3C2=O)C(=O)N1 (stereo unspecified) | – |
